Settings: for log10 BCF / log10 biotransformation half-life (days): fish

Row | Structure (SMILES) | melting point | boiling point | other results
1 | Clc1ccc(Cl)nc1 | 60.5 °C |  | 
2 | NNc1cccc2ccccc12 | 117 °C |  | 
3 | N#CCCN(CCO)c1ccc(N=Nc2ccc([N+](=O)[O-])cc2Cl)cc1 | 157 °C |  | 
4 | Nc1ccc(Cc2ccc(N)c(Cl)c2Cl)c(Cl)c1Cl |  |  | ready biodegradability: not readily biodegradable
5 | CCCCCCCC | -56.8 °C | 126 °C | log10 Koa: 3.35; log10 biodegradation half-life (days): 0.954; log10 vapour pressure (mmHg): 1.15; ready biodegradability: readily biodegradable
6 | Cc1cc(C(C)(C)C)c(O)c(C)c1CC1=NCCN1 | 182 °C |  | 
7 | CCOC(=O)CC(SP(=O)(OC)OC)C(=O)OCC (centres undefined) |  |  | log10 vapour pressure (mmHg): -5.01; log10 BCF: 0.05; log10 biotransformation half-life (days): -1.04
8 | CC(=O)Oc1ccc(OC(C)=O)cc1 | 124 °C |  | 
9 | CCCCCCCCCCCCCCCC#N | 31 °C | 333 °C | 
10 | CN1C(=O)CN=C(c2ccccc2F)c2cc([N+](=O)[O-])ccc21 | 166 °C |  | 
11 | CC/C(=C(/CC)c1ccc(OC)cc1)c1ccc(OC)cc1 | 124 °C |  | 
12 | O=COC1CCCCC1 |  | 163 °C | 
13 | Cl.Nc1ccccc1 | 198 °C |  | 
14 | CC1=CCCCCC1 |  | 136 °C | 
15 | CCCCCCCCCCCCI | 0.3 °C | 298 °C | log10 vapour pressure (mmHg): -1.85
16 | Clc1ccc(Oc2ccc(Cl)cc2Cl)cc1 |  |  | log10 vapour pressure (mmHg): -3.82; log10 biotransformation half-life (days): 1.72
17 | CN1[C@@H]2CC[C@H]1C[C@@H](O)C2 | 86.5 °C | 237 °C | 
18 | CN(C)C(=S)Cl | 42.5 °C |  | 
19 | CCC(O)CC |  | 116 °C | log10 vapour pressure (mmHg): 0.943
20 | O=c1cc(-c2ccccc2)oc2cc(O)cc(O)c12 | 286 °C |  | 
21 | O=C(O)c1cc(O)c(O)c(O)c1 |  |  | ready biodegradability: readily biodegradable
22 | Nc1cc(Cl)c(Cl)c(Cl)c1Cl |  |  | log10 Koc (L/kg): 3.03; log10 BCF: 2.21
23 | CSC(C)(C)C=NO | 21 °C | 210 °C | 
24 | CN(C)c1ccccc1 | 2.5 °C | 193 °C | log10 Koc (L/kg): 2.26; log10 vapour pressure (mmHg): -0.155; ready biodegradability: not readily biodegradable; log10 BCF: 0.9; log10 biotransformation half-life (days): -0.96
25 | C[C@@H]1CC[C@H]2C(C)(C)[C@H]3C[C@@]12CC[C@@]3(C)O | 86 °C |  | 

Row | Structure (SMILES) | melting point | boiling point | other results
26 | O=[N+]([O-])c1cccc2ncccc12 | 74 °C |  | 
27 | O=C(Nc1ccc(Br)cc1)c1c(O)cccc1O | 229 °C |  | 
28 | CC(NNC(=O)c1ccccc1)c1ccccc1 (centres undefined) | 93.5 °C |  | 
29 | CCCN(C(C)=O)c1ccccc1 | 49 °C | 268 °C | 
30 | Cc1nc([N+](=O)[O-])cn1-c1ccc([N+](=O)[O-])cc1 | 186 °C |  | 
31 | Nc1c(Cl)cc(Cl)cc1Br | 83.5 °C | 273 °C | 
32 | Oc1c(I)cc(Cl)c2cccnc12 | 178 °C |  | 
33 | C#CC=O |  | 60 °C | 
34 | CCCCCCCCCCCCCCCCCCOP(OCCCCCCCCCCCCCCCCCC)OCCCCCCCCCCCCCCCCCC |  |  | ready biodegradability: readily biodegradable
35 | c1ccc(-c2ccncc2)cc1 | 77.5 °C | 281 °C | 
36 | CCNP(=S)(OC)O/C(C)=C/C(=O)OC(C)C (centres undefined) |  |  | log10 vapour pressure (mmHg): -4.84
37 | CCN(CC)CCOc1ccc(C(O)(Cc2ccc(Cl)cc2)c2ccc(C)cc2)cc1 (centres undefined) | 103 °C |  | 
38 | CN(C)O | 108 °C |  | log10 vapour pressure (mmHg): 1.33
39 | c1ccc2cc(-c3ccc4ccccc4c3)ccc2c1 | 188 °C | 452 °C | 
40 | CN(C)CCCCN(C)C |  | 168 °C | 
41 | CN1CCC2=C(C1)C(c1ccccc1)c1ccccc12 (centres undefined) | 91 °C |  | 
42 | O=NN1CCC[C@H]1c1cccnc1 | 47 °C |  | 
43 | FC(F)(F)C1(F)C(F)(F)C(F)(F)C(F)(C(F)(F)F)C(F)(F)C1(F)F (centres undefined) |  | 100 °C | 
44 | CN(C)c1cccc2c(S(=O)(=O)Cl)cccc12 | 70 °C |  | 
45 | COc1cc(O)c2c(=O)c3cc(O)ccc3oc2c1 | 266 °C |  | 
46 | CCN(CC)c1ccc(N)cc1 |  | 261 °C | 
47 | CCCCCCCCCCCCCCCC(C)O (centres undefined) | 54 °C |  | 
48 | CC1=C(CC(=O)O)c2cc(F)ccc2/C1=C\c1ccc(S(C)=O)cc1 (centres undefined) | 183 °C |  | 
49 | CC1=CC(C)(C)Nc2ccccc21 | 26.5 °C | 260 °C | ready biodegradability: not readily biodegradable
50 | CC(C=CC=CC(C)=CC=CC(C)=CC=C1C(C)=CC(=O)CC1(C)C)=CC=CC(C)=CC=C1C(C)=CC(=O)CC1(C)C | 219 °C |  | 

Row | Structure (SMILES) | melting point | boiling point | other results
51 | CNC(=O)COc1ccccc1OCC(O)CNC(C)(C)C (centres undefined) | 96.5 °C |  | 
52 | COc1ccc(-c2coc3cc(O)ccc3c2=O)cc1 | 256 °C |  | 
53 | C[C@]12CC[C@H]3[C@@H](CCC4=CC(=O)CC[C@@]43C)[C@@H]1CC[C@@H]2OC(=O)CCC1CCCC1 | 155 °C |  | 
54 | CCCCCCCCCCCCCC(=O)CC | 43 °C |  | 
55 | CC(C)(C)OOC(C)(C)C | -40 °C | 111 °C | log10 vapour pressure (mmHg): 1.4
56 | C=CCCCCCCCCO |  | 236 °C | 
57 | Cc1cccc(C(C)c2ccccc2)c1C (centres undefined) |  |  | ready biodegradability: not readily biodegradable
58 | CNc1ccccc1C(=O)O | 180 °C |  | ready biodegradability: readily biodegradable
59 | CC[C@@H](C(=O)O)c1ccccc1 | 47.5 °C | 271 °C | 
60 | CCOC(=O)c1cnc2cc(OCC(C)C)c(OCC(C)C)cc2c1O | 290 °C |  | 
61 | Brc1ccsc1Br | -17.5 °C | 218 °C | 
62 | Cc1cccc(C(=O)c2ccccc2)c1 |  | 317 °C | 
63 | CC(C)OC(=O)C(O)(c1ccc(Br)cc1)c1ccc(Br)cc1 | 77 °C |  | log10 vapour pressure (mmHg): -7.09
64 | CCC1CCC1 | -143 °C | 70.8 °C | 
65 | O=C(c1ccccc1)c1ccc(C(F)(F)F)cc1 | 115 °C |  | 
66 | Cc1ccc(CC#N)cc1 | 18 °C | 242 °C | 
67 | CCCCCCCCCC=O | -5 °C | 208 °C | log10 Henry constant (atm·m³/mol): -2.74; log10 vapour pressure (mmHg): -0.987; ready biodegradability: readily biodegradable
68 | CCCCC(C)C(C)CC (centres undefined) |  | 163 °C | 
69 | CCC(C)(C)C | -99 °C | 49.7 °C | log10 biodegradation half-life (days): 1.28; log10 vapour pressure (mmHg): 2.5
70 | Cc1ccc(N)c(N)c1 | 89.5 °C | 265 °C | log10 vapour pressure (mmHg): -3.2
71 | O=C(O)c1cc([N+](=O)[O-])cc([N+](=O)[O-])c1 | 205 °C |  | log10 Koc (L/kg): 1.53; ready biodegradability: not readily biodegradable
72 | C1=CCC(c2ccccc2)CC1 (centres undefined) |  |  | ready biodegradability: readily biodegradable
73 | Pc1ccccc1 |  | 160 °C | 
74 | O=S(=O)([O][Na])c1ccc2cc(O)c(S(=O)(=O)[O][Na])cc2c1 |  |  | log10 BCF: 0.3
75 | Nc1ccc(C2CCCCC2)cc1 | 54.5 °C |  | 

Row | Structure (SMILES) | melting point | boiling point | other results
76 | CC(C)CCCC(C)CCCC(C)CCCCC(C)CCCC(C)CCCC(C)C (centres undefined) | -38 °C | 350 °C | log10 biodegradation half-life (days): 1.62
77 | CN(C)CCCN1c2ccccc2Sc2ccc(Cl)cc21.Cl | 195 °C |  | 
78 | Cc1cccc(Nc2ccccc2)c1 | 30 °C | 316 °C | log10 vapour pressure (mmHg): -3.83
79 | NS(=O)(=O)c1ccc(S(=O)(=O)CCCO)c(F)c1 | 130 °C |  | 
80 | CC1(CCl)CO1 (centres undefined) |  | 122 °C | ready biodegradability: not readily biodegradable
81 | NC(=O)Nc1ccc(Br)cc1 | 226 °C | 260 °C | log10 Koc (L/kg): 2.06
82 | O=C(O)CS(=O)(=O)O | 85 °C |  | 
83 | CC1(C)CCCC(C)(C)N1 |  | 156 °C | 
84 | Cc1cc2ccccc2c2ccc3ccccc3c12 | 118 °C |  | 
85 | Cc1ccc(CBr)cc1 | 35 °C | 220 °C | 
86 | Cc1ccc(O)c(-n2n3c4ccccc4n23)c1 |  |  | ready biodegradability: not readily biodegradable
87 | COc1ccn(C)c(=O)c1C#N | 202 °C |  | 
88 | COc1cc(C(=O)NCc2ccc(OCCN(C)C)cc2)cc(OC)c1OC | 189 °C |  | 
89 | COc1cc2c(c(O)c1OC)[C@H](C)NCC2 | 160 °C |  | 
90 | Nc1cnn(-c2ccccc2)c(=O)c1Br | 224 °C |  | 
91 | CCCCCCN(CCCCCC)C(=O)COC(=O)c1ccccc1 | 162 °C |  | 
92 | CCC1CCCCN1C(=O)COC(=O)c1ccccc1 (centres undefined) | 54.5 °C |  | 
93 | CC1CC1 | -177 °C | 0.7 °C | log10 vapour pressure (mmHg): 3.2
94 | c1ccc2c(c1)ccc1[nH]c3ccccc3c12 | 134 °C | 448 °C | 
95 | O=C1C(Cl)=C(Cl)C(=O)C(Cl)=C1Cl | 290 °C |  | log10 Koc (L/kg): 2.32
96 | CCOC(=O)/C=C/C(=O)OCC |  |  | ready biodegradability: readily biodegradable
97 | CC(C)C1=CC[C@H]2C(=C1)CC[C@@H]1[C@]2(C)CCC[C@@]1(C)C(=O)O | 150 °C |  | 
98 | CCC=CC(C)(C)C |  | 103 °C | 
99 | C(=Nc1ccccc1)Nc1ccccc1 | 142 °C |  | 
100 | O=Cc1ccccn1 |  | 180 °C | 

Row | Structure (SMILES) | melting point | boiling point | other results
101 | O=S(=O)(O)CCCN1CCOCC1 | 284 °C |  | 
102 | ClCc1ccc(Br)cc1 | 50 °C | 236 °C | 
103 | CCOc1ccc(F)cc1 | -8.5 °C | 173 °C | 
104 | COC(=O)c1ccccc1S(=O)(=O)NC(=O)Nc1nc(OC(F)F)cc(OC(F)F)n1 | 196 °C |  | log10 Koc (L/kg): 1.08
105 | CCCCCCC(C)C | -80.3 °C | 143 °C | log10 biodegradation half-life (days): 0.699; log10 vapour pressure (mmHg): 0.793
106 | CCc1nn(C)c(C(=O)NCc2ccc(C(C)(C)C)cc2)c1Cl | 61.5 °C |  | log10 BCF: 1.15
107 | CCC | -188 °C | -42.1 °C | log10 Koa: 0.97; log10 vapour pressure (mmHg): 3.85; ready biodegradability: readily biodegradable
108 | c1ccc(-c2noc(-c3ccccc3)n2)cc1 | 109 °C | 290 °C | 
109 | CCOP(=S)(OCC)SCSCC |  |  | log10 Koc (L/kg): 2.7; log10 vapour pressure (mmHg): -3.2
110 | Nc1ccccc1S | 26 °C | 234 °C | 
111 | O=C(O)c1ccc(F)c(F)c1 | 123 °C |  | 
112 | O=Cc1cccnc1 |  |  | log10 Henry constant (atm·m³/mol): -6.82
113 | Clc1ccccc1C(Cl)(Cl)Cl | 29.4 °C | 264 °C | log10 vapour pressure (mmHg): -1.3
114 | CCOC(=O)c1cccc(Br)c1 |  | 261 °C | 
115 | ClCCCCCl | -37.3 °C | 161 °C | log10 Henry constant (atm·m³/mol): -3.31; log10 vapour pressure (mmHg): 0.616; ready biodegradability: not readily biodegradable
116 | C#CC(=O)O | 9 °C |  | 
117 | C=CC1CC2C=CC1C2 (centres undefined) | -80 °C | 140 °C | log10 vapour pressure (mmHg): 0.992
118 | Cc1cc2c(cc1C)CCCC2 | 10 °C | 252 °C | 
119 | NCC[C@H](O)C(=O)N[C@@H]1C[C@H](N)[C@@H](O[C@H]2O[C@H](CN)[C@@H](O)[C@H](O)[C@H]2O)[C@H](O)[C@H]1O[C@H]1O[C@H](CO)[C@@H](O)[C@H](N)[C@H]1O | 204 °C |  | 
120 | CC(C)CC=NO | 48.5 °C | 161 °C | 
121 | O=Cc1cc(Br)cc(Br)c1O | 86 °C |  | 

From the OPERA property sets (Mansouri et al. 2018)
